Structures can show the parent of a compound that is named as a salt.
molecular target: T1, Adrenergic β2 (Homo sapiens, UniProt P07550); assay: Adrenergic β2 mediated cAMP production in H292 cells (AlphaScreen cAMP detection); type: cell-based; conditions: Intrinsic Activity, fraction relative to the maximum activity determined for formoterol
T1 construct: Adherent H292 cells were removed from tissue culture flasks; endogenous in cells; host or cells: H292 cells
Description: Adrenergic β2 Mediated cAMP Production
H292 cells were grown in 225 cm2 flasks incubator at 37° C., 5% CO2 in RPMI medium containing, 10% (v/v) FBS (foetal bovine serum) and 2 mM L-glutamine.
Adherent H292 cells were removed from tissue culture flasks by treatment with Accutase™ cell detachment solution for 15 minutes. Flasks were incubated for 15 minutes in a humidified incubator at 37° C., 5% CO2. Detached cells were re-suspended in RPMI media (containing 10% (v/v) FBS and 2 mM L-glutamine) at 0.05×10^6 cells per mL. 5000 cells in 100 μL were added to each well of a tissue-culture-treated 96-well plate and the cells incubated overnight in a humidified incubator at 37° C., 5% CO2. The culture media was removed and cells were washed twice with 100 μL assay buffer and replaced with 50 μL assay buffer (HBSS solution containing 10 mM HEPES pH 7.4 and 5 mM glucose). Cells were rested at room temperature for 20 minutes after which time 25 μL of rolipram (1.2 mM made up in assay buffer containing 2.4% (v/v) dimethylsulphoxide) was added. Cells were incubated with rolipram for 10 minutes after which time test compounds were added and the cells were incubated for 60 minutes at room temperature. The final rolipram concentration in the assay was 300 μM and final vehicle concentration was 1.6% (v/v) dimethylsulphoxide. The reaction was stopped by removing supernatants, washing once with 100 μL assay buffer and replacing with 50 μL lysis buffer. The cell monolayer was frozen at −80° C. for 30 minutes (or overnight).
The concentration of cAMP (cyclic adenosine monophosphate) in the cell lysate was determined using AlphaScreen™ methodology. The frozen cell plate was thawed for 20 minutes on a plate shaker then 10 μL of the cell lysate was transferred to a 96-well white plate. 40 μL of mixed AlphaScreen™ detection beads pre-incubated with biotinylated cAMP, was added to each well and the plate incubated at room temperature for 10 hours in the dark. The AlphaScreen™ signal was measured using an EnVision spectrophotometer (Perkin-Elmer Inc.) with the recommended manufacturer's settings. cAMP concentrations were determined by reference to a calibration curve determined in the same experiment using standard cAMP concentrations. Concentration response curves for agonists were constructed and data was fitted to a four parameter logistic equation to determine both the pEC50 and Intrinsic Activity. Intrinsic Activity was expressed as a fraction relative to the maximum activity determined for formoterol in each experiment.

T1 sequence (P07550 whole entry): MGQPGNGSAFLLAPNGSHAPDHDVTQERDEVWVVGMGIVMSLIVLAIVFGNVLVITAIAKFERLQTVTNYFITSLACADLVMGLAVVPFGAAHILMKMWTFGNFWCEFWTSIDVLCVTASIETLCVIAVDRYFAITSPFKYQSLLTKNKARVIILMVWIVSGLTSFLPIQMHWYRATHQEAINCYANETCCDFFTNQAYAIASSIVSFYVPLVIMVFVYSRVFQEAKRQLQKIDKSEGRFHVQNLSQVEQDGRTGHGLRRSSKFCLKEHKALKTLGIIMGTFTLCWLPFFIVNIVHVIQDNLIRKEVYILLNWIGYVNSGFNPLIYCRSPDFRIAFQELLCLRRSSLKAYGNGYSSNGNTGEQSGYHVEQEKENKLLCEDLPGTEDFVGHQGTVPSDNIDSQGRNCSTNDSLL

SMILES | β2 Int Act
CC(C)N(CCNCCc1ccc(O)c2[nH]c(=O)sc12)C(=O)CCNCCc1ccccc1 [Example 1, N-(2-{[2-(4-Hydroxy-2-oxo-2,3-dihydro-1,3-benzothiazol-7-yl)ethyl]amino}ethyl)-N-isopropyl-N^3-(2-phenylethyl)-β-alaninamide bis-trifluoroacetic acid salt] | 0.78
CC(C)N(CCNCCc1ccc(O)c2[nH]c(=O)sc12)C(=O)CCNCCc1ccc(Cl)cc1 [Example 3, N^3-[2-(4-Chlorophenyl)ethyl]-N-(2-{[2-(4-hydroxy-2-oxo-2,3-dihydro-1,3-benzothiazol-7-yl)ethyl]amino}ethyl)-N-isopropyl-β-alaninamide bis-trifluoroacetic acid salt] | 0.34
O=C(CCNCCc1ccccc1)N(CCNCCc1ccc(O)c2[nH]c(=O)sc12)C1CCC(F)(F)CC1 [Example 4, N-(4,4-Difluorocyclohexyl)-N-(2-{[2-(4-hydroxy-2-oxo-2,3-dihydro-1,3-benzothiazol-7-yl)ethyl]amino}ethyl)-N^3-(2-phenylethyl)-β-alaninamide bis-trifluoroacetic acid salt] | 0.79
CC(C)(C)CN(CCNCCc1ccc(O)c2[nH]c(=O)sc12)C(=O)CCNCCc1ccccc1 [Example 6, N-(2,2-Dimethylpropyl)-N-(2-{[2-(4-hydroxy-2-oxo-2,3-dihydro-1,3-benzothiazol-7-yl)ethyl]amino}ethyl)-N^3-(2-phenylethyl)-β-alaninamide bis-trifluoroacetic acid salt] | 0.89
CC(C)(C)CN(CCNCCc1ccc(O)c2[nH]c(=O)sc12)C(=O)CCNCCc1cccc(Cl)c1 [Example 7, N^3-[2-(3-Chlorophenyl)ethyl]-N-(2,2-dimethylpropyl)-N-(2-{[2-(4-hydroxy-2-oxo-2,3-dihydro-1,3-benzothiazol-7-yl)ethyl]amino}ethyl)-β-alaninamide bis-trifluoroacetic acid salt] | 0.68
CC(C)(C)CN(CCNCCc1ccc(O)c2[nH]c(=O)sc12)C(=O)CCNCCc1ccc(Cl)cc1 [Example 8, N^3-[2-(4-Chlorophenyl)ethyl]-N-(2,2-dimethylpropyl)-N-(2-{[2-(4-hydroxy-2-oxo-2,3-dihydro-1,3-benzothiazol-7-yl)ethyl]amino}ethyl)-β-alaninamide bis-trifluoroacetic acid salt] | 0.73
CC(C)(C)CN(CCNCCc1ccc(O)c2[nH]c(=O)sc12)C(=O)CCNCCc1ccc(Cl)c(Cl)c1 [Example 9, N^3-[2-(3,4-Dichlorophenyl)ethyl]-N-(2,2-dimethylpropyl)-N-(2-{[2-(4-hydroxy-2-oxo-2,3-dihydro-1,3-benzothiazol-7-yl)ethyl]amino}ethyl)-β-alaninamide bis-trifluoroacetic acid salt] | 0.65
Cc1cccc(CCNCCC(=O)N(CCNCCc2ccc(O)c3[nH]c(=O)sc23)CC(C)(C)C)c1 [Example 10, N-(2,2-Dimethylpropyl)-N-(2-{[2-(4-hydroxy-2-oxo-2,3-dihydro-1,3-benzothiazol-7-yl)ethyl]amino}ethyl)-N^3-[2-(3-methylphenyl)ethyl]-β-alaninamide bis-trifluoroacetic acid salt] | 0.69
C[C@H](CNCCC(=O)N(CCNCCc1ccc(O)c2[nH]c(=O)sc12)CC(C)(C)C)c1ccccc1 [Example 11, N-(2,2-Dimethylpropyl)-N-(2-{[2-(4-hydroxy-2-oxo-2,3-dihydro-1,3-benzothiazol-7-yl)ethyl]amino}ethyl)-N^3-[(2S)-2-phenylpropyl]-β-alaninamide bis-trifluoroacetic acid salt] | 0.84
O=C(CCNCCc1ccc(Cl)cc1)N(CCNCCc1ccc(O)c2[nH]c(=O)sc12)C1CCCCC1 [Example 13, N^3-[2-(4-Chlorophenyl)ethyl]-N-cyclohexyl-N-(2-{[2-(4-hydroxy-2-oxo-2,3-dihydro-1,3-benzothiazol-7-yl)ethyl]amino}ethyl)-β-alaninamide bis-trifluoroacetic acid salt] | 0.71
O=C(CCNCCc1ccc(F)cc1)N(CCNCCc1ccc(O)c2[nH]c(=O)sc12)C1CCCCC1 [Example 16, N-Cyclohexyl-N^3-[2-(4-fluorophenyl)ethyl]-N-(2-{[2-(4-hydroxy-2-oxo-2,3-dihydro-1,3-benzothiazol-7-yl)ethyl]amino}ethyl)-β-alaninamide bis-trifluoroacetic acid salt] | 0.91
O=C(CCNCCc1cccc(Cl)c1)N(CCNCCc1ccc(O)c2[nH]c(=O)sc12)C1CCOCC1 [Example 22, N^3-[2-(3-Chlorophenyl)ethyl]-N-(2-{[2-(4-hydroxy-2-oxo-2,3-dihydro-1,3-benzothiazol-7-yl)ethyl]amino}ethyl)-N-(tetrahydro-2H-pyran-4-yl)-β-alaninamide bis-trifluoroacetic acid salt] | 0.96
O=C(CCNCCc1ccccc1)N(CCNCCc1ccc(O)c2[nH]c(=O)sc12)C1CCCCCC1 [Example 23, N-Cycloheptyl-N-(2-{[2-(4-hydroxy-2-oxo-2,3-dihydro-1,3-benzothiazol-7-yl)ethyl]amino}ethyl)-N^3-(2-phenylethyl)-β-alaninamide bis-trifluoroacetic acid salt] | 0.85

The next lines start with the values.

β2 Int Act | SMILES
0.83 | O=C(CCNCCc1ccccc1)N(CCNCCc1ccc(O)c2[nH]c(=O)sc12)C1CCCCC1 [Example 5, N-Cyclohexyl-N-(2-{[2-(4-hydroxy-2-oxo-2,3-dihydro-1,3-benzothiazol-7-yl)ethyl]amino}ethyl)-N^3-(2-phenylethyl)-β-alaninamide bis-trifluoroacetic acid salt]
0.87 | O=C(CCNCCc1cccc(Cl)c1)N(CCNCCc1ccc(O)c2[nH]c(=O)sc12)C1CCCCC1 [Example 12, N^3-[2-(3-Chlorophenyl)ethyl]-N-cyclohexyl-N-(2-{[2-(4-hydroxy-2-oxo-2,3-dihydro-1,3-benzothiazol-7-yl)ethyl]amino}ethyl)-β-alaninamide bis-trifluoroacetic acid salt]
0.84 | Cc1cccc(CCNCCC(=O)N(CCNCCc2ccc(O)c3[nH]c(=O)sc23)C2CCCCC2)c1 [Example 14, N-Cyclohexyl-N-(2-{[2-(4-hydroxy-2-oxo-2,3-dihydro-1,3-benzothiazol-7-yl)ethyl]amino}ethyl)-N^3-[2-(3-methylphenyl)ethyl]-β-alaninamide bis-trifluoroacetic acid salt]
0.90 | O=C(CCNCCc1ccccc1Cl)N(CCNCCc1ccc(O)c2[nH]c(=O)sc12)C1CCCCC1 [Example 17, N^3-[2-(2-Chlorophenyl)ethyl]-N-cyclohexyl-N-(2-{[2-(4-hydroxy-2-oxo-2,3-dihydro-1,3-benzothiazol-7-yl)ethyl]amino}ethyl)-β-alaninamide bis-trifluoroacetic salt]
0.89 | C[C@H](CNCCC(=O)N(CCNCCc1ccc(O)c2[nH]c(=O)sc12)C1CCCCC1)c1ccccc1 [Example 18, N-Cyclohexyl-N-(2-{[2-(4-hydroxy-2-oxo-2,3-dihydro-1,3-benzothiazol-7-yl)ethyl]amino}ethyl)-N^3-[(2S)-2-phenylpropyl]-β-alaninamide bis-trifluoroacetic acid salt]
0.70 | CC(C)(Cc1ccccc1)NCCC(=O)N(CCNCCc1ccc(O)c2[nH]c(=O)sc12)C1CCCCC1 [Example 19, N-Cyclohexyl-N^3-(1,1-dimethyl-2-phenylethyl)-N-(2-{[2-(4-hydroxy-2-oxo-2,3-dihydro-1,3-benzothiazol-7-yl)ethyl]amino}ethyl)-β-alaninamide bis-trifluoroacetic acid salt]
0.97 | C[C@@H](CNCCC(=O)N(CCNCCc1ccc(O)c2[nH]c(=O)sc12)C1CCCCC1)c1ccccc1 [Example 20, N-Cyclohexyl-N-(2-{[2-(4-hydroxy-2-oxo-2,3-dihydro-1,3-benzothiazol-7-yl)ethyl]amino}ethyl)-N^3-[(2R)-2-phenylpropyl]-β-alaninamide bis-trifluoroacetic acid salt]
0.85 | CC(C)(CNCCC(=O)N(CCNCCc1ccc(O)c2[nH]c(=O)sc12)C1CCCCC1)c1ccccc1 [Example 21, N-Cyclohexyl-N-(2-{[2-(4-hydroxy-2-oxo-2,3-dihydro-1,3-benzothiazol-7-yl)ethyl]amino}ethyl)-N^3-(2-methyl-2-phenylpropyl)-β-alaninamide bis-trifluoroacetic acid salt]

— patent publication US7700782B2, “Compounds 569” (AstraZeneca AB, priority 2007, dated 2010)
